Assay results taken from US6083920A, “Compositions for modulating intracellular inositol trisphosphate concentration” (priority 1996, dated 2000).

How the values were obtained:
[1] = tested on: InsP3 signalling in primary chick cortical neurons; assay: Phosphoinositide hydrolysis assay (InsP3 signalling) in cultured primary cortical neurons; format: cell-based; settings: for Ins-P-n, modulator Lsm:Sph: 20 μM Lysosphingomyelin + 20 μM Sphingosine; for Ins-P-n, modulator Psy:Sph: 20 μM Psychosine + 20 μM Sphingosine; for fold induction at 100 µM: Gallus gallus, Cortical neurone, 20 min, read-out: Ins-P-n (agonist alone); for physiological effect in this system: amino group amidated, non-ionic
Experimental: Primary cultures of neurons were prepared from the telencephalon of white Leghorn chick embryos on the eighth day of their development (Rosenberg et al., J.Biol. Chem. 267:10601-10612, 1992). The neurons were seeded in 24-well plastic tissue culture plates that had been coated with L-polylysine. The density of the neurons was 10^5 cells per well, and they were cultured in Dulbecco's modified Eagle's medium/Ham's high glucose F-12 medium (1:1, vol:vol) containing 500 ng/L sodium selenite, 500 μg/L transferrin, and 165 pmole/L EGF. The cultures were maintained at 37° C. under 5% CO2 in air for 4 days, by which time the cells had differentiated into neurite-bearing cortical granulocytic neurons. These cultures of mature embryonic neurons were used for phosphoinositide hydrolysis assays (as described in Example 2).
Receptor-stimulated and basal unstimulated hydrolysis of phosphoinositides was measured by the following procedure. In order to label the cellular phosphoinositides metabolically, the primary cultures of chick cortical neurons (described in Example 1) were incubated overnight with 0.5 ml Dulbecco's modified Eagle's medium containing 1 μCi [^3 H]myo-inositol per well. The cells were then washed twice with 1 ml Dulbecco's phosphate-buffered saline (PBS) and 0.5 ml of PBS containing 4.5 g/L glucose was added. Sphingosine, psychosine, lysosulphatide, or lysosphingomyelin, prepared as the hydrochloride salt dissolved in water, were then added to produce the desired extracellular concentration in specific wells, […] The cells were then washed twice with 1 ml PBS, and pre-incubated for 15 minutes at 37° C. with 0.5 ml PBS containing 10 mM LiCl and the compound to be tested was added. […] The tubes were vortexed thoroughly, then centrifuged at 500×g for 5 minutes to separate the aqueous and chloroform phases. For each sample, a 1.5-ml aliquot of the upper (aqueous) phase was applied to a small column containing BioRad AG1X8 resin (formate form). Free [^3 H]inositol and [^3 H]glycerophosphoinositol were washed through the column with 5 ml of a solution containing 5 mM sodium borate and 60 mM sodium formate. The total phosphorylated [^3 H] inositol fraction was eluted from the column for radiometric scintillation spectrometry analysis with 3 ml 1.0 M ammonium formate/0.1 M formic acid;
In addition, a 0.5 ml aliquot of the lower (chloroform) phase of each sample was analyzed radiometrically by scintillation spectrometry in order to determine the quantity of lipid-bound [^3 H]myo-inositol. Estimation of phosphoinositide hydrolysis by phospholipase C is based upon the quantity of [^3 H]inositol phosphates produced, and is expressed as the percentage of the latter relative to total free and componential [^3 H]inositol (dpm ammonium formate+dpm chloroform fractions).
Cultured primary chick cortical neurons that were prelabeled with [^3 H]myo-inositol were examined for enhanced InsP3 signalling in response to various agonists including glutamate, aspartate, and the metabotropic […] receptor agonists ibotenate and quisqualate.

[2] = Membrane insertion potential
rat C6 glioma cells = settings: cited from earlier work
[3] = tested on: calcium ion signalling in cortical neurons; assay: Metabotropic receptor function: calcium ion signalling (fura 2) in intact cortical neurons; format: cell-based, chick; settings: 10 μM agonist, 30 minutes at 37° C., fura 2 fluorescence ratio
Experimental: Metabotropic receptor function was examined in intact neurons by assaying lysosphingolipid modulation of calcium ion signalling. Approximately 1×10^6 cortical neurons were cultured on rectangular L-polylysine-coated coverslips and loaded with lysocerebroside or lysosphingomyelin to a level of 150±20 pmoles per mg protein. The neurons were returned to complete Ham's high glucose medium/DMEM (1:1, vol:vol) and infiltrated with 5 μM fura 2/AM (Molecular Probes, Eugene, Oreg.). Fura 2 is a calcium chelator whose fluorescence absorbance shifts to shorter wavelength upon calcium ion binding is measurable in intact cells. A change in intraneuronal calcium ion concentration was monitored as a change in the fluorescence spectrum.
The neurons were exposed to 10 μM glutamate agonist (for example, ibotenate) for 30 minutes at 37° C. The coverslips were then transferred to quartz cuvettes in medium containing 250 μM sulfinpyrazone to prevent fura 2/AM diffusion. Fluorescence ratios were recorded in a Perkin-Elmer LS-5 Fluorescence Spectrometer thermostatted at 37° C. at excitation wavelengths of 340 and 380 nm, a nd emission measurement at 500 nm. Calcium ion signalling in agonist-stimulated neurons was 3.0±0.2 arbitrary units for ibotenate-exposed neurons.

[4] = then 100 μM agonist 20 min, normalized to control = 1.00

Question: Which “influence on the effects of sphingosine, lysocerebroside, or lysosphingomyelin on InsP3 production” value ([1]; brain neurons responsive to excitatory amino acids) does the source give for `CN[C@@H]1C[C@H]2O[C@@](C)([C@@H]1OC)n1c3ccccc3c3c4c(c5c6ccccc6n2c5c31)C(=O)NC4` [staurosporine] here?
Answer: does not influence

Question: For `N[C@@H](CC(=O)O)C(=O)O` [Aspartate, aspartate], which “Ins-P-n, modulator Lsm:Sph” value [1, 4] is on record?
Answer: 2.00 ± 0.05

Question: What about the “Ins-P-n, modulator Psy:Sph” value [1, 4] of the same molecule?
Answer: 2.65 ± 0.50

Question: What about the fold induction at 100 µM [1] of the same molecule?
Answer: 2.7 ± 0.06

Question: What about the “Ins-P-n, modulator Lsm” value ([1]; neurons preincubated with 20 μM Lysosphingomyelin 30 min, washed, then 100 μM agonist 20 min, normalized to control = 1.00) of the same molecule?
Answer: 1.00 ± 0.06

Question: What about the “Ins-P-n, modulator Psy” value ([1]; neurons preincubated with 20 μM Psychosine 30 min, washed, then 100 μM agonist 20 min, normalized to control = 1.00) of the same molecule?
Answer: 1.00 ± 0.06

Question: Which “Ins-P-n, modulator Lsm:Sph” value [1, 4] does the source give for `N[C@@H](CCC(=O)O)C(=O)O` [Glutamate, glutamate] here?
Answer: 3.00 ± 0.10

Question: What about the “Ins-P-n, modulator Psy:Sph” value [1, 4] of the same molecule?
Answer: 3.00 ± 0.35

Question: And the fold induction at 100 µM [1]?
Answer: 3.3 ± 0.05

Question: For ceramide, which “physiological effect in this system” value [1] is on record?
Answer: little or no physiological effect

Question: With `CCCCCCCCCCCCCCC[C@@H](O)[C@@H](N)CO` [sphinganine] as the molecule, how does the “membrane insertion potential relative to sphingosine” value [2] read?
Answer: less than one third the membrane insertion potential of sphingosine

Question: With `CCCCCCCCCCCCC/C=C/[C@@H](O)[C@H](CO)NC(C)=O` [N-acetyl sphingosine] as the molecule, how does the “physiological effect in this system” value [1] read?
Answer: little or no physiological effect

Question: Which “level of InsP3” value (rat C6 glioma cells) does the source give for `CN(C)CCCN1c2ccccc2Sc2ccc(Cl)cc21` [chlorpromazine, 10-(3-dimethylaminopropyl)-2-chlorphenothiazine] here?
Answer: raises the level of InsP3

Question: With `NC(C(=O)O)c1cc(O)no1` (stereo not drawn) [Ibotenate, ibotenate] as the molecule, how does the “Ins-P-n, modulator Lsm:Sph” value [1, 4] read?
Answer: 2.10 ± 0.10

Question: And the “Ins-P-n, modulator Psy:Sph” value [1, 4]?
Answer: 3.10 ± 0.35

Question: What about the fold induction at 100 µM [1] of the same molecule?
Answer: 3 ± 0.1

Question: And the “calcium ion signalling in agonist-stimulated neurons” value [3]?
Answer: 3.0±0.2 arbitrary units

Question: For `CCCCCCCCCCCCC/C=C/[C@@H](O)[C@@H](N)CO[C@@H]1O[C@H](CO)[C@H](O)[C@H](OS(=O)(=O)O)[C@H]1O` [Lysosulphatide], which “inhibitory effect on InsP3 enhancement caused by sphingosine or metabotropic glutamate receptor agonists” value ([1]; cortical neurons) is on record?
Answer: without inhibitory effect
